According to patent US20250215101A1, “DR5 Agonist and PLK1 Inhibitor or CDK Inhibitor Combination Therapy” (Inhibrx Biosciences, Inc., priority 2022, published 2025):

How the values were obtained:
Assay in all cases: Cytotoxicity assay, colorectal cancer cell line panel, onvansertib +/- 1 nM INBRX-109
Assay type in all cases: cell-based
[1] = tested on: HT-55; conditions: for Max Cytotox at 600 nM: HT-55; for EC50: Homo sapiens, HT55, HT-55
Protocol: (§1) Monolayer cultures of each cell line were harvested for compound screening as detailed below.
(§2) Also on day 2, test and control articles were added.
(§3) On day 4, viability measurements were taken. […] Data was graphed in GraphPad Prism 9.
(§4) The results for a panel of colorectal cancer cell lines are shown in Table 3 and FIGS. 4-6, and the results for a panel of pancreatic cell lines are shown in Table 4 and FIGS. 7 and 8.

[2] = tested on: RKO; conditions: for EC50: Homo sapiens
Protocol: as §1, §2, §3, §4

[3] = tested on: LoVo; conditions: for EC50: Homo sapiens
Protocol: as §1, §2, §3, §4

[4] = tested on: NCI-H716; conditions: for EC50: Homo sapiens, NCI-H716, NCI-H716; for Max Cytotox at 600 nM: NCI-H716
Protocol: as §1, §2, §3, §4

[5] = tested on: LS 513; conditions: for EC50: Homo sapiens, LS-513, LS 513; for Max Cytotox at 600 nM: LS 513
Protocol: as §1, §2, §3, §4

[6] = tested on: LS 180; conditions: for EC50: Homo sapiens, LS180, LS 180; for Max Cytotox at 600 nM: LS 180
Protocol: as §1, §2, §3, §4

[7] = tested on: LS 1034; conditions: for EC50: Homo sapiens, LS-1034, LS 1034; for Max Cytotox at 600 nM: LS 1034
Protocol: as §1, §2, §3, §4

[8] = tested on: DLD-1; conditions: for Max Cytotox at 600 nM: DLD-1; for EC50: Homo sapiens, DLD-1, DLD-1
Protocol: as §1, §2, §3, §4

[9] = tested on: COLO320DM; conditions: for EC50: Homo sapiens, COLO 320DM
Protocol: as §1, §2, §3, §4

[10] = tested on: T84; conditions: for EC50: Homo sapiens, T84, T84; for Max Cytotox at 600 nM: T84
Protocol: as §1, §2, §3, §4

[11] = tested on: LS 123; conditions: for EC50: Homo sapiens, LS-123, LS 123; for Max Cytotox at 600 nM: LS 123
Protocol: as §1, §2, §3, §4

[12] = tested on: SW-480; conditions: for EC50: Homo sapiens, SW480, SW-480; for Max Cytotox at 600 nM: SW-480
Protocol: as §1, §2, §3, §4

[13] = tested on: NCI-H747; conditions: for EC50: Homo sapiens, NCI-H747, NCI-H747; for Max Cytotox at 600 nM: NCI-H747
Protocol: as §1, §2, §3, §4

[14] = tested on: HCT 116; conditions: for Max Cytotox at 600 nM: HCT 116; for EC50: Homo sapiens, HCT-116, HCT 116
Protocol: as §1, §2, §3, §4

[15] = tested on: HT-29; conditions: for Max Cytotox at 600 nM: HT-29; for EC50: Homo sapiens, HT-29, HT-29
Protocol: as §1, §2, §3, §4

SMILES: CN1CCN(c2ccc(OC(F)(F)F)c(Nc3ncc4c(n3)-c3c(c(C(N)=O)nn3CCO)CC4)c2)CC1 [Onvansertib]
- Max Cytotox at 600 nM ([1]; onvansertib + 1 nM INBRX-109): 87.9%
- Max Cytotox at 600 nM ([1]; onvansertib only): 41.8%
- EC50 ([1]; onvansertib + 1 nM INBRX-109): 0.0441 µM
- EC50 ([1]; onvansertib only): 0.0514 µM
- EC50 ([2]; onvansertib + 1 nM INBRX-109): 0.0547 µM
- EC50 ([2]; onvansertib only): 0.0859 µM
- Max Cytotox at 600 nM ([2]; onvansertib + 1 nM INBRX-109): 93.8%
- Max Cytotox at 600 nM ([2]; onvansertib only): 65.7%
- EC50 ([3]; onvansertib + 1 nM INBRX-109): 0.0418 µM
- EC50 ([3]; onvansertib only): 0.0341 µM
- Max Cytotox at 600 nM ([3]; onvansertib + 1 nM INBRX-109): 90.8%
- Max Cytotox at 600 nM ([3]; onvansertib only): 29.6%
- EC50 ([4]; onvansertib + 1 nM INBRX-109): 0.0836 µM
- EC50 ([4]; onvansertib only): 0.0813 µM
- Max Cytotox at 600 nM ([4]; onvansertib + 1 nM INBRX-109): 51.2%
- Max Cytotox at 600 nM ([4]; onvansertib only): 34.8%
- EC50 ([5]; onvansertib + 1 nM INBRX-109): 0.101 µM
- EC50 ([5]; onvansertib only): 0.215 µM
- Max Cytotox at 600 nM ([5]; onvansertib + 1 nM INBRX-109): 93.7%
- Max Cytotox at 600 nM ([5]; onvansertib only): 39.6%
- EC50 ([6]; onvansertib + 1 nM INBRX-109): 0.197 µM
- EC50 ([6]; onvansertib only): 0.505 µM
- Max Cytotox at 600 nM ([6]; onvansertib + 1 nM INBRX-109): 86.2%
- Max Cytotox at 600 nM ([6]; onvansertib only): 42.9%
- EC50 ([7]; onvansertib + 1 nM INBRX-109): 0.199 µM
- EC50 ([7]; onvansertib only): 0.237 µM
- Max Cytotox at 600 nM ([7]; onvansertib + 1 nM INBRX-109): 85.8%
- Max Cytotox at 600 nM ([7]; onvansertib only): 38.8%
- Max Cytotox at 600 nM ([8]; onvansertib + 1 nM INBRX-109): 90.4%
- Max Cytotox at 600 nM ([8]; onvansertib only): 45.8%
- EC50 ([8]; onvansertib + 1 nM INBRX-109): 0.184 µM
- EC50 ([8]; onvansertib only): 0.28 µM
- EC50 ([9]; onvansertib + 1 nM INBRX-109): 0.283 µM
- EC50 ([9]; onvansertib only): 0.383 µM
- Max Cytotox at 600 nM ([9]; onvansertib + 1 nM INBRX-109): 79.6%
- Max Cytotox at 600 nM ([9]; onvansertib only): 58.3%
- EC50 ([10]; onvansertib + 1 nM INBRX-109): 0.297 µM
- EC50 ([10]; onvansertib only): 0.355 µM
- Max Cytotox at 600 nM ([10]; onvansertib + 1 nM INBRX-109): 62.9%
- Max Cytotox at 600 nM ([10]; onvansertib only): 32.1%
- EC50 ([11]; onvansertib + 1 nM INBRX-109): 0.172 µM
- EC50 ([11]; onvansertib only): 0.15 µM
- Max Cytotox at 600 nM ([11]; onvansertib + 1 nM INBRX-109): 24.1%
- Max Cytotox at 600 nM ([11]; onvansertib only): 9.6%
- EC50 ([12]; onvansertib + 1 nM INBRX-109): 0.0933 µM
- EC50 ([12]; onvansertib only): 0.126 µM
- Max Cytotox at 600 nM ([12]; onvansertib + 1 nM INBRX-109): 86.3%
- Max Cytotox at 600 nM ([12]; onvansertib only): 40.7%
- EC50 ([13]; onvansertib + 1 nM INBRX-109): 0.0787 µM
- EC50 ([13]; onvansertib only): 0.0716 µM
- Max Cytotox at 600 nM ([13]; onvansertib + 1 nM INBRX-109): 44.5%
- Max Cytotox at 600 nM ([13]; onvansertib only): 17.4%
- Max Cytotox at 600 nM ([14]; onvansertib + 1 nM INBRX-109): 96.6%
- Max Cytotox at 600 nM ([14]; onvansertib only): 76.0%
- EC50 ([14]; onvansertib + 1 nM INBRX-109): 0.0668 µM
- EC50 ([14]; onvansertib only): 0.112 µM
- Max Cytotox at 600 nM ([15]; onvansertib + 1 nM INBRX-109): 98.3%
- Max Cytotox at 600 nM ([15]; onvansertib only): 45.6%
- EC50 ([15]; onvansertib + 1 nM INBRX-109): 0.043 µM
- EC50 ([15]; onvansertib only): 0.0616 µM
